According to US8541585B2, “N-acyl cyclic amine derivative or pharmaceutically acceptable salt thereof” (Dainippon Sumitomo Pharma Co., Ltd., priority 2010, dated 2013):

What was measured:
human 5-HT2A receptor = biological target: T1, human 5-HT2A receptor (Homo sapiens, UniProt P28223); assay: Serotonin 5-HT2A receptor binding assay ([3H]-ketanserin); conditions: [3H]-ketanserin 1 nM, human 5-HT2A receptor-expressing CHO cell membrane; for inhibition at 0.01 µM: 10 nM test drug, read-out: BINDING INHIBITION RATE (%) 5HT2A 10 nM
T1 construct: expressed in transfected cells; host or cells: CHO cells (membrane preparation)
Method: (2) Serotonin 5-HT2A Receptor Binding Assay
5-HT2A receptor binding assay was performed in reference to a method described by Hirose et al. (Japan. J. Pharmacol., 53, 321-329, 1990). After a reaction in a total volume of 200 μL of 50 mM Tris-HCl (pH=7.6) buffer solution containing 50 μL of [^3H]-ketanserin (final concentration 1 nM), 1 μL of test drug in DMSO, and 149 μL of human 5-HT2A receptor-expressing CHO cell membrane sample, human 5-HT2A receptor binding activity of [^3H]-ketanserin was measured. The reaction solution let stand for 15 minutes at 37° C., and then it was quickly added on a glass fiber filter plate (Multiscreen FB, Millipore inc.) coated with 0.05% Brij 35 and filtered under reduced pressure. The glass fiber filter was washed with 200 μL of ice-cooled 50 mM Tris-HCl (pH=7.6) twice, repeatedly filtered under reduced pressure, and then transferred to a vial containing 4 mL of Ecoscint A (National Diagnostics inc.). The residual radioactivity on the glass fiber filter was measured by a liquid scintillation counter. Nonspecific binding was measured in the presence of 10 μM of MDL-100907, and [^3H]-ketanserin binding inhibition rate in the presence of 1 nM or 10 nM of test drug was determined.

human 5-HT6 receptor = biological target: T2, human 5-HT6 receptor (Homo sapiens, UniProt P50406); assay: Serotonin 5-HT6 receptor binding assay ([3H]-clozapine); conditions: 100 nM test drug, [3H]-clozapine 2 nM, human 5-HT6 receptor-expressing CHO cell membrane; for inhibition at 0.1 µM: read-out: BINDING INHIBITION RATE (%) 5HT6 100 nM
T2 construct: expressed in transfected cells; host or cells: CHO cells (membrane preparation)
Method: (3) Serotonin 5-HT6 Receptor Binding Assay
After a reaction in a total volume of 200 μL of 50 mM Tris-HCl (pH=7.6), 4 mM CaCl2, and 0.5 mM EDTA buffer solution containing 50 μL of [^3H]-clozapine (final concentration 2 nM), 1 μL of test drug in DMSO, and 149 μL of human 5-HT6 receptor-expressing CHO cell membrane sample, human 5-HT6 receptor binding activity of [^3H]-clozapine was measured. The reaction solution let stand for 40 minutes at room temperature, and then it was quickly added on a glass fiber filter plate (Multiscreen FB, Millipore inc.) coated with 0.3% polyethyleneimine (PEI) and filtered under reduced pressure. The glass fiber filter was washed with 200 μL of ice-cooled 50 mM Tris-HCl (pH=7.6) twice, repeatedly filtered under reduced pressure, and then transferred to a vial containing 4 mL of Ecoscint A (National Diagnostics inc.). The residual radioactivity on the glass fiber filter was measured by a liquid scintillation counter. Nonspecific binding was measured in the presence of 10 μM of SB-258585, and [^3H]-clozapine binding inhibition rate in the presence of 100 nM of test drug was determined.

human α1D receptor = biological target: T3, human α1D receptor (Homo sapiens, UniProt P25100); assay: Adrenaline α1D receptor binding assay ([3H]-prazosin); conditions: 100 nM test drug, [3H]-prazosin 0.6 nM, human α1D receptor-expressing CHO cell membrane; for inhibition at 0.1 µM: read-out: BINDING INHIBITION RATE (%) α1D 100 nM
T3 construct: expressed in transfected cells; host or cells: CHO cells (membrane preparation)
T3 sequence (P25100 1-572): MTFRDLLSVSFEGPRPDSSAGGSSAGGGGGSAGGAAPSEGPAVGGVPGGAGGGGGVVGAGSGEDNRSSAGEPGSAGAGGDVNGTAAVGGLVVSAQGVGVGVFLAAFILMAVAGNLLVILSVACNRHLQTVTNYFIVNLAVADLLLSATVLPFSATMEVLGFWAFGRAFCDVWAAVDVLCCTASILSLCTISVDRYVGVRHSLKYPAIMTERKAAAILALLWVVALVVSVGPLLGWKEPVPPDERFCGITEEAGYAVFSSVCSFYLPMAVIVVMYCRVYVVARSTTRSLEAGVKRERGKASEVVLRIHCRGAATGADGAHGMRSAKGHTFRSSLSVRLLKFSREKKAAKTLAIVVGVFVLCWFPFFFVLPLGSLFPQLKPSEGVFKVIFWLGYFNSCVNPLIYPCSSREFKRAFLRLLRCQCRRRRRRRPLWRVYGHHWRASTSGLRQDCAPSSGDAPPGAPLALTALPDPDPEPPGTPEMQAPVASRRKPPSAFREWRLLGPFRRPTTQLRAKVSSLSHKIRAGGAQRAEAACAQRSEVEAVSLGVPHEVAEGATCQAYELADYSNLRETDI
Method: (4) Adrenaline α1D Receptor Binding Assay
After a reaction in a total volume of 200 μL of 50 mM Tris-HCl (pH=7.6) buffer solution containing 50 μL of [^3H]-prazosin (final concentration 0.6 nM), 1 μL of test drug in DMSO, and 149 μL of human α1D receptor-expressing CHO cell membrane sample, human α1D receptor binding activity of [^3H]-prazosin was measured. The reaction solution let stand for 30 minutes at room temperature, and then it was quickly added on a glass fiber filter plate (Multiscreen FB, Millipore inc.) coated with 0.3% polyethyleneimine (PEI) and filtered under reduced pressure. The glass fiber filter was washed with 200 μL of ice-cooled 50 mM Tris-HCl (pH=7.6) twice, repeatedly filtered under reduced pressure, and then transferred to a vial containing 4 mL of Ecoscint A (National Diagnostics inc.). The residual radioactivity on the glass fiber filter was measured by a liquid scintillation counter. Nonspecific binding was measured in the presence of 1 μM of prazosin, and [^3H]-prazosin binding inhibition rate in the presence of 100 nM of test drug was determined.

human D2L receptor = human D2L receptor (Homo sapiens, UniProt P14416); assay: Dopamine D2L receptor binding assay ([3H]-spiperone); conditions: 10 nM test drug, [3H]-spiperone 0.5 nM, human D2L receptor-expressing CHO cell membrane; for inhibition at 0.01 µM: read-out: BINDING INHIBITION RATE (%) D2L 10 nM
Method: (1) Dopamine D2L Receptor Binding Assay
D2L receptor binding assay was performed in reference to a method described by Hirose et al. (Japan. J. Pharmacol., 53, 321-329, 1990). After a reaction in a total volume of 200 μL of 50 mM Tris-HCl (pH=7.6) buffer solution containing 50 μL of [^3H]-spiperone (final concentration 0.5 nM), 1 μL of test drug in DMSO, and 149 μL of human D2L receptor-expressing CHO cell membrane sample, human D2L receptor binding activity of [^3H]-spiperone was measured. The reaction solution let stand for 60 minutes at room temperature, and then it was quickly added on a glass fiber filter plate (Multiscreen FB, Millipore inc.) coated with 0.3% polyethyleneimine (PEI) and filtered under reduced pressure. The glass fiber filter was washed with 200 μL of ice-cooled 50 mM Tris-HCl (pH=7.6) twice, repeatedly filtered under reduced pressure, and then transferred to a vial containing 4 mL of Ecoscint A (National Diagnostics inc.). The residual radioactivity on the glass fiber filter was measured by a liquid scintillation counter. Nonspecific binding was measured in the presence of 10 μM of spiperone, and [^3H]-spiperone binding inhibition rate in the presence of 10 nM of test drug was determined. The larger binding inhibition rate (%) means that test drug has the higher binding affinity for human D2L receptor.

human D2L receptor, sequence (P14416 whole entry): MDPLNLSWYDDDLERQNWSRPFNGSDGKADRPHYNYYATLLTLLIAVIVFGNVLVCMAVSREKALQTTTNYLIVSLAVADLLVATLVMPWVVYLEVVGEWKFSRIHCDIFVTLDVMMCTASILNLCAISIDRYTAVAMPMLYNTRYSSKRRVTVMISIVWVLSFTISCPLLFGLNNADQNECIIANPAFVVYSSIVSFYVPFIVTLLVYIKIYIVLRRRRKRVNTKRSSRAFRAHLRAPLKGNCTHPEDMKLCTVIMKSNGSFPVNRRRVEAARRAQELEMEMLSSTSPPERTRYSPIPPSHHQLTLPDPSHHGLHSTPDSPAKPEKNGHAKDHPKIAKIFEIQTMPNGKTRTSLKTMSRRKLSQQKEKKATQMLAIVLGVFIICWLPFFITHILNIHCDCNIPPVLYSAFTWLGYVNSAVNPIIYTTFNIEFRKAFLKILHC
T2 sequence (P50406 whole entry): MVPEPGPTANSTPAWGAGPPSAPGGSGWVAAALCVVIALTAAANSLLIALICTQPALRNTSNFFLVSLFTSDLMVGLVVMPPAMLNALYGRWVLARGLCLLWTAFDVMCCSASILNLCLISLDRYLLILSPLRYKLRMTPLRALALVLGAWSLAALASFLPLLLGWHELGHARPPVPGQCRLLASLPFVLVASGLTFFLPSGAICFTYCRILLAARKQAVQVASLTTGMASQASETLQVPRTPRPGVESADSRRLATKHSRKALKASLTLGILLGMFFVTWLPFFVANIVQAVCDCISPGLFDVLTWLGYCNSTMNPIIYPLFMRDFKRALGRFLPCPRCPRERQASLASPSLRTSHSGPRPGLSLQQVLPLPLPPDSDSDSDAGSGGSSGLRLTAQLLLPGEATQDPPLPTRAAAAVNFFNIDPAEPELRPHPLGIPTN
T1 sequence (P28223 whole entry): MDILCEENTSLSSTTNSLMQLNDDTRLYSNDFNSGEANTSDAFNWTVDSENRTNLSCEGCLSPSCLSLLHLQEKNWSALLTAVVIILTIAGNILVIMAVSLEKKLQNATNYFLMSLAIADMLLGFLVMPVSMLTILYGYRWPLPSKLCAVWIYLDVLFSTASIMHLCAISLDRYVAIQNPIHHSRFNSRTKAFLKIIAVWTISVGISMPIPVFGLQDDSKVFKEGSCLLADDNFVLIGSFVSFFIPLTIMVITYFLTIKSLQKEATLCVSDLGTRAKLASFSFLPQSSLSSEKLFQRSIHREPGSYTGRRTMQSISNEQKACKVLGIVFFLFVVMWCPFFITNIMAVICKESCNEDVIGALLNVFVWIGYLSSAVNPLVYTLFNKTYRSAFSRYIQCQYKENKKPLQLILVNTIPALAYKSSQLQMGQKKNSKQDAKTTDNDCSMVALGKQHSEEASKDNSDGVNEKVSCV

Row | Compound | inhibition at 0.1 µM (human 5-HT6 receptor) [%] | inhibition at 0.1 µM (human α1D receptor) [%] | inhibition at 0.01 µM (human D2L receptor) [%] | inhibition at 0.001 µM (human 5-HT2A receptor; 1 nM test drug, read-out: BINDING INHIBITION RATE (%) 5HT2A 1 nM) [%] | inhibition at 0.01 µM (human 5-HT2A receptor) [%] | BINDING INHIBITION RATE (%) 5HT6 100 nM (human 5-HT6 receptor) [%] | BINDING INHIBITION RATE (%) α1D 100 nM (human α1D receptor) [%] | BINDING INHIBITION RATE (%) D2L 10 nM (human D2L receptor) [%]
1 | Cc1ccc2cc(C(=O)N3CCC[C@H]3CCN3CCC(C(=O)c4ccc(F)cc4)CC3)[nH]c2c1 [Example 1, (S)-(2-(2-(4-(4-Fluorobenzoyl)piperidin-1-yl)ethyl)pyrrolidin-1-yl)(6-methyl-1H-indol-2-yl)methanone] | 96 | 68 | 91 | 73 |  |  |  | 
2 | Cc1ccc2cc(C(=O)N3CCC[C@H]3CCN3CCN(c4n[nH]c5cc(F)ccc45)CC3)[nH]c2c1 [Example 24] | 98 | 64 | 88 |  |  |  |  | 
3 | Cc1ccc2cc(C(=O)N3CCC[C@H]3CCN3CCN(c4n[nH]c5ccc(F)cc45)CC3)[nH]c2c1 [Example 25] | 82 |  | 28 |  |  |  |  | 
4 | COc1ccc2[nH]c(C(=O)N3CCCC[C@H]3CCN3CCC(c4coc5cc(F)ccc45)CC3)cc2c1 [Example 30] | 65 |  | 92 |  | 95 |  |  | 
5 | CCOCCO[C@@H]1C[C@@H](CCN2CCC(c3c[nH]c4ccccc34)CC2)N(C(=O)c2cc3ccc(OC)cc3[nH]2)C1 [Example 37] | 78 |  | 0 |  | 91 |  |  | 
6 | O=C(c1cc2cc(O)ccc2[nH]1)N1CCOC[C@H]1CCN1CCC(c2c[nH]c3ccccc23)CC1 [Example 41] | 78 | 81 | 85 |  |  |  |  | 
7 | O=C(c1ccc(F)cc1)C1CCN(CC[C@@H]2CCCN2C(=O)c2cc3ccccc3n2-c2ccncc2)CC1 [Example 49] | 75 | 30 | 83 |  |  |  |  | 
8 | N#CCCc1ccc2c(Cl)c(C(=O)N3CCC[C@H]3CCN3CCC(C(=O)c4ccc(F)cc4)CC3)[nH]c2c1 [Example 55] | 100 |  | 83 |  |  |  |  | 
9 | C[C@H]1CC[C@@H](CCN2CCC(C(=O)c3ccc(F)cc3)CC2)N1C(=O)c1cc2ccc(C(F)(F)F)cc2[nH]1 [Example 167, ((2S,5S)-2-(2-(4-(4-Fluorobenzoyl)piperidin-1-yl)ethyl)-5-methylpyrrolidin-1-yl)(6-(trifluoromethyl)-1H-indol-2-yl)methanone] | 95 | 33 | 75 |  |  |  |  | 
10 | (S)-(2-(2-(4-(6-Fluorobenzo[d]isoxazol-3-yl)piperidin-1-yl)ethyl)pyrrolidin-1-yl)(3-phenyl-1H-pyrazol-5-yl)methanone hydrochloride [Example 170] |  |  |  |  |  | 95 | 83 | 87

Continued, in another order:

Row | inhibition at 0.1 µM (human 5-HT6 receptor) [%] | inhibition at 0.1 µM (human α1D receptor) [%] | inhibition at 0.01 µM (human D2L receptor) [%] | Compound | inhibition at 0.001 µM (human 5-HT2A receptor; 1 nM test drug, read-out: BINDING INHIBITION RATE (%) 5HT2A 1 nM) [%] | inhibition at 0.01 µM (human 5-HT2A receptor) [%] | BINDING INHIBITION RATE (%) 5HT6 100 nM (human 5-HT6 receptor) [%] | BINDING INHIBITION RATE (%) α1D 100 nM (human α1D receptor) [%] | BINDING INHIBITION RATE (%) D2L 10 nM (human D2L receptor) [%]
11 | 92 | 89 | 75 | O=C(/C=C/c1ccc2c(c1)OCO2)N1CCC[C@H](CCN2CCC(c3noc4cc(F)ccc34)CC2)C1 [Example 14] |  |  |  |  | 
12 | 85 |  | 26 | O=C(c1cc2ccc(F)cc2[nH]1)N1CCC[C@H](CN2CCN(c3n[nH]c4ccccc34)CC2)C1 [Example 22] |  |  |  |  | 
13 | 94 | 85 | 72 | O=C(c1ccc(F)cc1)C1CCN(CC[C@@H]2CCCN2C(=O)c2[nH]c3ccccc3c2-c2ccccc2)CC1 [Example 47] |  |  |  |  | 
14 | 97 | 40 | 82 | O=C(c1ccc(F)cc1)C1CCN(CC[C@@H]2CCCN2C(=O)c2cc3ccccc3n2C2CCOCC2)CC1 [Example 48] |  |  |  |  | 
15 | 94 | 48 | 89 | Cc1ccc2cc(C(=O)N3C[C@H](F)C[C@H]3CCN3CCC(C(=O)c4ccc(F)cc4)CC3)[nH]c2c1 [Example 53] |  |  |  |  | 
16 | 86 | 76 | 69 | O=C(c1cccc(-c2ccccc2)c1)N1CCC[C@@H](CCN2CCN(c3nsc4ccccc34)CC2)C1 [Example 57] |  |  |  |  | 
17 | 17 |  | 0 | CC(=O)Nc1cccc2cc(C(=O)N3CCC[C@H]3CCN3CCC(C(=O)c4ccc(F)cc4)CC3)n(C)c12 [Example 63] |  |  |  |  | 
18 | 97 | 62 | 88 | Cc1ccc2cc(C(=O)N3[C@H](CCN4CCC(C(=O)c5ccc(F)cc5)CC4)CC[C@@H]3C)[nH]c2c1 [Example 166, ((2S,5S)-2-(2-(4-(4-Fluorobenzoyl)piperidin-1-yl)ethyl)-5-methylpyrrolidin-1-yl)(6-methyl-1H-indol-2-yl)methanone] |  |  |  |  | 
19 | 94 | 61 | 81 | C[C@H]1CC[C@@H](CCN2CCC(C(=O)c3ccc(F)cc3)CC2)N1C(=O)c1cc2ccc(SC(F)(F)F)cc2[nH]1 [Example 168, ((2S,5S)-2-(2-(4-(4-Fluorobenzoyl)piperidin-1-yl)ethyl)-5-methylpyrrolidin-1-yl)(6-(trifluoromethylthio)-1H-indol-2-yl)methanone] |  |  |  |  | 
